# Tests used:
# [1] = system: EGF uptake in HCT116 cells; assay: Alexa Fluor 488 EGF uptake in HCT116 cells; type: cell-based, human; conditions: HCT116, microscopy and flow cytometry, 5 min, vs control cells
# Procedure: (§1) For the analysis of EGF and LDL uptake, HCT116 cells were incubated with serum-free DMEM supplemented with Alexa Fluor 488 EGF complex or Alexa Fluor 488 acetylated LDL to a final concentration of 1 µg/L at 37 °C for 5 min. For immunofluorescence microscopy analyses, HCT116 cells treated with Alexa Fluor 488-labeled EGF or LDL were fixed with 4% paraformaldehyde for 20 min and incubated in 10 mg/L DAPI for 15 min. The cells were observed using a BZ-x800 fluorescence microscope (Keyence, IL, USA). For flow cytometry analysis, HCT116 cells treated with Alexa Fluor 488-labeled EGF or LDL were detached using trypsin/EDTA and suspended in PBS. The mean fluorescent intensity per 10,000 cells was analyzed using a flow cytometer (Gallios, Beckman Coulter Life Science, Pasadena, CA, USA). The data were analyzed using Kaluza 2.1 analysis software (Beckman Coulter Life Science).
# [2] = system: EGFR signaling (phosphorylation of EGFR, AKT, ERK); assay: EGF-induced EGFR signaling (western blot) in HCT116 cells; type: cell-based, human; conditions: for EGF-induced phosphorylation of EGFR, AKT and ERK: HCT116, EGF 100 ng/mL for 5 min
# Excerpt: […] Cells were lysed with RIPA buffer, and the lysates were subjected to SDS-PAGE and visualized through western blotting using antibodies against PGRMC1, EGFR, phospho-Y1068 EGFR, AKT, phospho-S473AKT, ERK, and phospho-T185 Y187 ERK.
# [3] = biological target: T1, heme-dimerized PGRMC1 (Homo sapiens, UniProt O00264); assay: ITC binding to heme-dimerized PGRMC1; conditions: for Kd / TΔS / ΔG / ΔH: ITC; for Kd: 298 K, 50 mM phosphate pH 7.0, heme-dimerized PGRMC1 (WT); for TΔS / ΔG / ΔH: heme-dimerized PGRMC1 (WT)
# T1 construct: human PGRMC1 intracellular domain residues 43-195; GST (N, cleaved yes); made in house; host or cells: E. coli BL21 (DE3)
# T1 sequence (O00264 43-195): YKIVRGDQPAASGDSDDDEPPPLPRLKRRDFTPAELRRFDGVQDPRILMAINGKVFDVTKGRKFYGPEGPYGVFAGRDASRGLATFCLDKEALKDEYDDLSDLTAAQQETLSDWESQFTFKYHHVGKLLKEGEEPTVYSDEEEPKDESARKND
# Procedure: Expression vectors for PGRMC1 point mutants were generated by site-directed mutagenesis with PCR.
# Protein expression was induced by adding 1 mM isopropyl-β-thiogalactopyranoside (IPTG) and incubating at 37 °C for 4 h. After harvesting cells, the cell pellets were then resuspended in buffer containing 20 mM Tris-HCl (pH 7.5), 100 mM NaCl, and 0.1% Tween 20, sonicated twice at 4 °C for 5 min, and centrifuged at 20,000× g for 30 min. The supernatant was incubated with glutathione Sepharose 4B (GE Healthcare, Chicago, IL, USA) for 1 h at 4 °C. The resin was then washed five times with the same buffer, and the GST tag cleaved by adding Precision Protease (GE Healthcare) and incubating at 4 °C for 16 h. Apo-PGRMC1 or HMGB1 proteins was purified using size-exclusion chromatography in a Superdex 200 column (GE Healthcare). Heme-bound PGRMC1 was prepared by treating with 100 μM hemin and then purified using size-exclusion chromatography.
# GL derivatives were dissolved in 3 mM ITC-Buffer and titrated into 100 μM apo-PGRMC1, heme-bound-PGRMC1, or HMGB1 protein. Titration was performed by injecting 2 µL of the syringe solution at intervals of 120 s. Binding isotherms were analyzed using SEDPHAT [35]. The binding of AG205 to apo- or heme-PGRMC1 (100 μM) was analyzed using a concentration of 3 mM containing 1% DMSO.
# [4] = system: HCT116 cells xenograft; assay: HCT116 xenograft in nude mice; type: in vivo, mouse; conditions: i.p. twice a week, vs control; for Tumor volume, in combination with CDDP: CDDP 2 mg/kg plus GL 400 mg/kg (day 22) or GlucoGL 100 mg/kg (from day 15)
# Procedure: All protocols for animal experiments in this study were approved by the Experimental Animal Committee of Keio University School of Medicine (approval number: 08024-(13), approval date: 30 September 2020). HCT116 cells (2 × 10^6 cells/mouse) with half of Matrigel (Corning, NY, USA) were transplanted subcutaneously into the flank of 7-week-old nude mice. Four days after the transplantation, tumor size was measured in three dimensions with calipers and grouped by tumor volume. CDDP (2 mg/kg), GL (400 mg/kg), or GlucoGL (100 mg/kg) were administered to the mice intraperitoneally, and the tumor volume was measured twice a week for 22 days.
# [5] = system: LDL uptake in HCT116 cells; assay: Alexa Fluor 488-labelled LDL uptake in HCT116 cells; type: cell-based, human; conditions: HCT116, microscopy and flow cytometry, 5 min
# Procedure: as §1
# [6] = biological target: T2, interaction between PGRMC1 and LDLR (Homo sapiens, UniProt O00264); assay: Co-immunoprecipitation of PGRMC1 and LDLR in HCT116 cells; type: cell-based; conditions: HCT116, FLAG-PGRMC1 co-IP, 12 h treatment
# T2 construct: mammalian FLAG-tagged expression vector pCMV-FLAG-PGRMC1 (full-length); expressed in transfected cells; host or cells: HCT116
# T2 sequence (O00264 whole entry): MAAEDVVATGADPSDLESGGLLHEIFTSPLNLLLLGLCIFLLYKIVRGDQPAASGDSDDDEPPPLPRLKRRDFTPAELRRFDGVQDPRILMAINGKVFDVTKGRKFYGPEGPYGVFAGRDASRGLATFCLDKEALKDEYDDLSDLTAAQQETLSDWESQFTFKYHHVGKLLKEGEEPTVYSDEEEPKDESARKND
# Procedure: (§2) An expression vector of pCMV-3xFLAG-PGRMC1 or an empty vector was transfected into HCT116 cells or HuH7 cells using the transfection reagent Lipofectamine 2000 (Invitrogen). The cells were incubated overnight with either GL or GlucoGL. Cells were then lysed with NP40 lysis buffer (20 mM Tris-HCl [pH 7.5], 150 mM NaCl, and 1% NP40). The lysates were incubated with 10 μL of equilibrated anti-FLAG (M2) agarose for 60 min at room temperature. Bound proteins were washed three times and subjected to SDS-PAGE and visualized through western blotting using antibodies against FLAG, EGFR, and LDLR. For analysis of the endogenous PGRMC1-binding with FLAG-PGRMC1, HCT116 cells (1 × 10^7 cells) were treated with vehicle or 250 μM SA and/or 10 μM hemin for 48 h, and the cell lysates were co-immunoprecipitated with anti-FLAG (M2) agarose. Bound proteins (endogenous PGRMC1 and FLAG-tagged PGRMC1) were visualized through western blotting using antibody against PGRMC1.
# [7] = biological target: T3, interaction between PGRMC1 and EGFR (Homo sapiens, UniProt O00264); assay: Co-immunoprecipitation of PGRMC1 and EGFR in HCT116 cells; type: cell-based; conditions: HCT116, FLAG-PGRMC1 co-IP, 12 h treatment
# T3 construct: mammalian FLAG-tagged expression vector pCMV-FLAG-PGRMC1 (full-length); expressed in transfected cells; host or cells: HCT116 or HuH7
# T3 sequence (O00264 whole entry): as above
# Procedure: as §2
# [8] = system: HuH7 cells; assay: Chemosensitivity MTT assay in HuH7 cells; type: cell-based, human
# Procedure: The HCT116 cells, a human colon cancer cell line, and HuH7 cells, a human hepatoma cell line, were maintained in Dulbecco’s modified Eagle’s medium (DMEM) containing 10% fetal bovine serum (FBS) and 1% penicillin-streptomycin at 37 °C in a 5% CO2 humidified incubator. The PGRMC1 knockdown (KD) cell line was established in a previous study using lentivirus vectors.
# To analyze the chemosensitivity of HCT116 or HuH7 cells, the cells were incubated with erlotinib (20 µM) or CDDP (10 µM) and either GL or GL derivatives for 24 h on a 96-well plate. Cell viability was determined using an MTT assay kit (Millipore, Burlington, MA, USA) according to the manufacturer’s instructions.
Kd [3],TΔS [3],ΔG [3],ΔH [3],Interaction between PGRMC1 and LDLR [6],Interaction between PGRMC1 and EGFR [7],Binding to heme-dimerized PGRMC1 relative to binding to HMGB1 ([3]; ratio of KD HMGB1 / PGRMC1),SMILES,Uptake of labelled EGF [1],"EGF-induced phosphorylation of EGFR, AKT and ERK [2]","EGF signaling, time-course ([2]; HCT116, early phase of EGF stimulation (5 or 10 min))","Tumor volume, in combination with CDDP [4]",Labelled-LDL uptake [5],Cell viability with erlotinib or CDDP [8],"Tumor volume, administered individually ([4]; 22 days, CDDP 2 mg/kg, GL 400 mg/kg)"
1.38 µM,7.44 K·kcal/mol,-8.00 kcal/mol,-0.56 kcal/mol,inhibited this interaction more potently,inhibited the interaction more potently,–,"CC1(C(=O)O)CCC2(C)CCC3(C)C(=CC(=O)C4C5(C)CCC(OC6OC(C(=O)O)C(O)C(O)C6OC6OC(CO)C(O)C(O)C6O)C(C)(C)C5CCC43C)C2C1 (stereo not shown) [Glucoglycyrrhizin (GlucoGL), Glucoglycyrrhizin]",significantly suppressed,significantly suppressed,remarkable inhibitory effect,significantly suppressed the tumor volume,significantly suppressed,significantly suppressed cell viability,–
52.7 µM,4.61 K·kcal/mol,-5.84 kcal/mol,-1.23 kcal/mol,inhibited,inhibited,4.23 times,"CC1(C)[C@@H](O[C@H]2O[C@H](C(=O)O)[C@@H](O)[C@H](O)[C@H]2O[C@@H]2O[C@H](C(=O)O)[C@@H](O)[C@H](O)[C@H]2O)CC[C@]2(C)[C@H]3C(=O)C=C4[C@@H]5C[C@@](C)(C(=O)O)CC[C@]5(C)CC[C@@]4(C)[C@]3(C)CC[C@@H]12 [Glycyrrhizin (GL), Glycyrrhizin]",significantly suppressed,significantly suppressed,–,significantly smaller,significantly suppressed,significantly suppressed cell viability,no differences in tumor volume

# Reference: article PMC8269059, “Glycyrrhizin Derivatives Suppress Cancer Chemoresistance by Inhibiting Progesterone Receptor Membrane Component 1” (Cancers, 2021)
